The values that follow come from US20230322789A1, “PYRAZOLOPYRIDAZINONE COMPOUND, AND PHARMACEUTICAL COMPOSITION AND USE THEREOF” (BroadenBio Co., Ltd., priority 2020, published 2023).

Molecules are shown by their SMILES. Counter-ions that a name gives are not always drawn. Some results are limits rather than exact numbers.

The target in the experiment is HPK1 (Homo sapiens (Human), UniProt Q92918). Put plainly: HPK1 kinase activity inhibition test (ADP-Glo, luminescence). Type of experiment: biochemical. As to conditions: HPK1 5 nM, ATP 2 μM, read-out: IC50, inhibitory effects of compounds on HPK1 kinase activity. The method, then: 1. HPK1 Kinase Activity Inhibition Test
Chain of HPK1 (Q92918 whole entry): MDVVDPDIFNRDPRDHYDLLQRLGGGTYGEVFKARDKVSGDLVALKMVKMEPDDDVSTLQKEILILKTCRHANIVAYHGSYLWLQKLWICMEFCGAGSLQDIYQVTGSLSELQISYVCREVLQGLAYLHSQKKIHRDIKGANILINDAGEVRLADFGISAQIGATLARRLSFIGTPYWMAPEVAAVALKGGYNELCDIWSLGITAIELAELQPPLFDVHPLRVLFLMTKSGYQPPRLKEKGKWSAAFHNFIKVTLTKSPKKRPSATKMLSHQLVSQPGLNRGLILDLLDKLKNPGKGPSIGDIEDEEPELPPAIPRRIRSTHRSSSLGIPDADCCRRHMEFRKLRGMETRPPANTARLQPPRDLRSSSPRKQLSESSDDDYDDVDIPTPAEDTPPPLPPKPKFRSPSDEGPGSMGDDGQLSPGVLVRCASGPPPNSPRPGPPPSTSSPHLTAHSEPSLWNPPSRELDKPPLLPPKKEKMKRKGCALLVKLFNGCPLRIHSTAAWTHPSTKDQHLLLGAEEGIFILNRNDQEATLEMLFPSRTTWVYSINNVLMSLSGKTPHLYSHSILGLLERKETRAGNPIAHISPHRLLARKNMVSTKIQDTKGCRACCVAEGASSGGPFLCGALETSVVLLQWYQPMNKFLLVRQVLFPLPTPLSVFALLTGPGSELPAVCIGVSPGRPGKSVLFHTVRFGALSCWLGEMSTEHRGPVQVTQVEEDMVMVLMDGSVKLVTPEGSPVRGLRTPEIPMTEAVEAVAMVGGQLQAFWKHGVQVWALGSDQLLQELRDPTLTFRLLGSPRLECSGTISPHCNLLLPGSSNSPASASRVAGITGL
The kinase activity of HPK1 is manifested as activity of autophosphorylation and phosphorylation of downstream substrates. In the process of autophosphorylation, additional substrates are not required, and ATP is consumed to generate ADP. The amount of the product was measured by ADP-Glo reagent and luminescence method to reflect kinase activity.
Test compounds: compounds prepared in the examples of this application.
Prepare compound stock solution: dissolve the compound to be tested in 100% DMSO to make a 10 mM stock solution;
Prepare 4× Kinase Reaction Buffer:
Prepare 2×HPK1 Kinase Solution:
Dilute the stock solution of the compound to be tested by 5 times with […], make a 4-fold equal dilution in a 96-well dilution plate, add 1 μL of the compound to 49 µL of kinase reaction buffer, and shake on a microplate shaker for 20 minutes. Transfer 2 μL of […] kinase solution to 384 reaction plate, add 1 μL of the test compound to the 384 reaction plate (Greiner, 784075), centrifuge for 1 minute (1000 rpm/min), incubate at 25° C. for 10 minutes. Transfer […] of the 4×ATP mixture to a 384 reaction plate, centrifuge for 1 minute (1000 rpm/mm), and incubate at 25° C. for 60 minutes. In the reaction system, the final concentration of DMSO was […]. Transfer 4 μL of ADP-Glo to a 384 reaction plate, centrifuge for 1 minute (1000 rpm/min), and incubate at 25° C. for 40 minutes. Transfer 8 μL detection solution to a 384 reaction plate, centrifuge for 1 minute (1000 rpm/min), and incubate at 25° C. for 40 minutes. The […] signal was read using a Biotek multi-function plate reader, and the […] (half inhibitory concentration) of the compound was obtained using a four-coefficient nonlinear fitting formula.

On to `Cc1ccncc1-n1nc2c(-c3ccc(C4=CCN(C)CC4)cc3)n[nH]c2cc1=O` [Compound 150, 3-(4-(1-methyl-1,2,3,6-tetrahydropyridin-4-yl)phenyl)-5-(4-methylpyrid-3-yl)-1H-pyrazolo[4,3-c]pyridazin-6(5H)-one], for which the IC50 was 500 to 2000 nM. For `COc1ccncc1-n1nc2c(-c3ccc(-c4cnn(C)c4)cc3)n[nH]c2cc1=O` [Compound 152, 5-(4-methoxypyrid-3-yl)-3-(4-(1-methyl-1H-pyrazol-4-yl)phenyl)-1H-pyrazolo[4,3-c]pyridazin-6(5H)-one], the IC50 was in the range of 50 to 500 nM. As for `COc1cnccc1-n1nc2c(-c3ccc(N4CCN(C)CC4)cc3)n[nH]c2cc1=O` [Compound 153, 5-(3-methoxypyrid-4-yl)-3-(4-(4-methylpiperazin-1-yl)phenyl)-1H-pyrazolo[4,3-c]pyridazin-6(5H)-one], the IC50 was in the range of 50 to 500 nM. With `COc1cc(F)cc(F)c1-n1nc2c(-c3ccc4c(c3)CN(C)CC4)n[nH]c2cc1=O` [Compound 158, 5-(2,4-difluoro-6-methoxyphenyl)-3-(2-methyl-1,2,3,4-tetrahydroisoquinolin-7-yl)-1H-pyrazolo[4,3-c]pyridazin-6(5H)-one], the IC50 lay within 50 to 500 nM. In the case of `COc1cccc(F)c1-n1nc2c(-c3ccc4c(c3)CN(CC(F)F)CC4)n[nH]c2cc1=O` [Compound 166, 3-(2-(2,2-difluoroethyl)-1,2,3,4-tetrahydroisoquinolin-7-yl)-5-(2-fluoro-6-methoxyphenyl)-1H-pyrazolo[4,3-c]pyridazin-6(5H)-one] it was 50 to 500 nM; in that of `Cc1cccc(F)c1-n1nc2c(-c3ccc4c(c3)CN(C3CCOCC3)CC4)n[nH]c2cc1=O` [Compound 167, 5-(2-fluoro-6-methylphenyl)-3-(2-(tetrahydro-2H-pyran-4-yl)-1,2,3,4-tetrahydroisoquinolin-7-yl)-1H-pyrazolo[4,3-c]pyridazin-6(5H)-one], 50 to 500 nM; in that of `Cc1cccc(F)c1-n1nc2c(-c3ccc4c(c3)CN(C3CCN(C)CC3)CC4)n[nH]c2cc1=O` [Compound 168, 5-(2-fluoro-6-methylphenyl)-3-(2-(1-methylpiperidin-4-yl)-1,2,3,4-tetrahydroisoquinolin-7-yl)-1H-pyrazolo[4,3-c]pyridazin-6(5H)-one], 50 to 500 nM.

Regarding `Cc1cccc(F)c1-n1nc2c(-c3ccc4c(c3)CN(C(=O)CN3CCOCC3)CC4)n[nH]c2cc1=O` [Compound 169, 5-(2-fluoro-6-methylphenyl)-3-(2-(2-morpholinoacetyl)-1,2,3,4-tetrahydroisoquinolin-7-yl)-1H-pyrazolo[4,3-c]pyridazin-6(5H)-one], the IC50 fell in the range of 50 to 500 nM. As to `Cc1cc(C#N)cc(F)c1-n1nc2c(-c3ccc4c(c3)CN(C(=O)CO)CC4)n[nH]c2cc1=O` [Compound 172, 3-fluoro-4-(3-(2-(2-hydroxylacetyl)-1,2,3,4-tetrahydroisoquinolin-7-yl)-6-oxo-1H-pyrazolo[4,3-c]pyridazin-5(6H)-yl)-5-methylbenzonitrile], the IC50 was in the range of 50 to 500 nM. In the case of `Cc1cc(C#N)cc(F)c1-n1nc2c(-c3ccc4c(c3)CN(C(=O)C(C)O)CC4)n[nH]c2cc1=O` (stereo not drawn) [Compound 173, 3-fluoro-4-(3-(2-(2-hydroxylpropionyl)-1,2,3,4-tetrahydroisoquinolin-7-yl)-6-oxo-1H-pyrazolo[4,3-c]pyridazin-5(6H)-yl)-5-methylbenzonitrile] it was 50 to 500 nM. For `Cc1cccc(F)c1-n1nc2c(-c3ccc4c(c3)CN(C)[C@H](CO)C4)n[nH]c2cc1=O` [Compound 176, (S)-5-(2-fluoro-6-methylphenyl)-3-(3-(hydroxymethyl)-2-methyl-1,2,3,4-tetrahydroisoquinolin-7-yl)-1H-pyrazolo[4,3-c]pyridazin-6(5H)-one] the value was at most 50 nM. In the case of `Cc1cccc(F)c1-n1nc2c(-c3ccc4c(c3)CN(C)C(C)(C)C4)n[nH]c2cc1=O` [Compound 178, 5-(2-fluoro-6-methylphenyl)-3-(2,3,3-trimethyl-1,2,3,4-tetrahydroisoquinolin-7-yl)-1H-pyrazolo[4,3-c]pyridazin-6(5H)-one] it was 50 to 500 nM. For the compound `Cc1cccc(F)c1-n1nc2c(-c3ccc4c(c3)CN(C)[C@@H](CO)C4)n[nH]c2cc1=O` [Compound 179, (R)-5-(2-fluoro-6-methylphenyl)-3-(3-(hydroxymethyl)-2-methyl-1,2,3,4-tetrahydroisoquinolin-7-yl)-1H-pyrazolo[4,3-c]pyridazin-6(5H)-one], the 50% inhibitory concentration (IC50) fell in the range of 50 to 500 nM. Turning to `COC[C@@H]1Cc2ccc(-c3n[nH]c4cc(=O)n(-c5c(C)cccc5F)nc34)cc2CN1C` [Compound 180, (S)-5-(2-fluoro-6-methylphenyl)-3-(3-(methoxymethyl)-2-methyl-1,2,3,4-tetrahydroisoquinolin-7-yl)-1H-pyrazolo[4,3-c]pyridazin-6(5H)-one], the IC50 was at most 50 nM. For `Cc1cccc(F)c1-n1nc2c(-c3ccc4c(c3)CN3CCOC[C@@H]3C4)n[nH]c2cc1=O` [Compound 181, (S)-5-(2-fluoro-6-methylphenyl)-3-(1,3,4,6,11,11a-hexahydro-[1,4]oxazino[4,3-b]isoquinolin-8-yl)-1H-pyrazolo[4,3-c]pyridazin-6(5H)-one] the value was 50 to 500 nM; for `Cc1cccc(F)c1-n1nc2c(-c3ccc4c(c3)CN(C)C(=O)C4)n[nH]c2cc1=O` [Compound 182, 7-(5-(2-fluoro-6-methylphenyl)-6-oxo-5,6-dihydro-1H-pyrazolo[4,3-c]pyridazin-3-yl)-2-methyl-1,2-dihydroisoquinolin-3(4H)-one], 50 to 500 nM. Regarding `Cc1cccc(F)c1-n1nc2c(-c3ccc4c(c3)C(=O)N(C)CC4)n[nH]c2cc1=O` [Compound 183], the IC50 was in the range of 500 to 2000 nM. For `Cc1cccc(F)c1-n1nc2c(-c3ccc4c(c3)C(CO)N(C)CC4)n[nH]c2cc1=O` (stereo not drawn) [Compound 184, 5-(2-fluoro-6-methylphenyl)-3-(1-(hydroxymethyl)-2-methyl-1,2,3,4-tetrahydroisoquinolin-7-yl)-1H-pyrazolo[4,3-c]pyridazin-6(5H)-one] the value was 50 to 500 nM; for `Cc1cccc(F)c1-n1nc2c(-c3ccc4c(c3)C3COC(=O)N3CC4)n[nH]c2cc1=O` (stereo not drawn) [Compound 185, 9-(5-(2-fluoro-6-methylphenyl)-6-oxo-5,6-dihydro-1H-pyrazolo[4,3-c]pyridazin-3-yl)-5,6-dihydro-1H-oxazolo[4,3-a]isoquinolin-3(10bH)-one], 500 to 2000 nM. In the case of `Cc1cccc(F)c1-n1nc2c(-c3ccc4c(c3)C(CN)N(C)CC4)n[nH]c2cc1=O` (stereo not drawn) [Compound 186, 3-(1-(aminomethyl)-2-methyl-1,2,3,4-tetrahydroisoquinolin-7-yl)-5-(2-fluoro-6-methylphenyl)-1H-pyrazolo[4,3-c]pyridazin-6(5H)-one hydrochloride], the IC50 was in the range of 500 to 2000 nM. For `Cc1cccc(F)c1-n1nc2c(-c3cnc4c(c3)CN(C)CC4)n[nH]c2cc1=O` [Compound 187, 5-(2-fluoro-6-methylphenyl)-3-(6-methyl-5,6,7,8-tetrahydro-1,6-naphthyridin-3-yl)-1H-pyrazolo[4,3-c]pyridazin-6(5H)-one] the value was 50 to 500 nM; for `Cc1cccc(F)c1-n1nc2c(-c3ccc4c(c3F)CN(C)CC4)n[nH]c2cc1=O` [Compound 188, 3-(8-fluoro-2-methyl-1,2,3,4-tetrahydroisoquinolin-7-yl)-5-(2-fluoro-6-methylphenyl)-1H-pyrazolo[4,3-c]pyridazin-6(5H)-one], 50 to 500 nM; for `Cc1cccc(F)c1-n1nc2c(-c3cc4c(cc3F)CCN(C)C4)n[nH]c2cc1=O` [Compound 189, 3-(6-fluoro-2-methyl-1,2,3,4-tetrahydroisoquinolin-7-yl)-5-(2-fluoro-6-methylphenyl)-1H-pyrazolo[4,3-c]pyridazin-6(5H)-one], 50 to 500 nM. For `COc1cccc(F)c1-n1nc2c(-c3ccc4c(c3F)CN(C)CC4)n[nH]c2cc1=O` [Compound 190, 3-(8-fluoro-2-methyl-1,2,3,4-tetrahydroisoquinolin-7-yl)-5-(2-fluoro-6-methoxyphenyl)-1H-pyrazolo[4,3-c]pyridazin-6(5H)-one], the IC50 lay within 50 to 500 nM. As for `COc1cccc(F)c1-n1nc2c(-c3cc4c(cc3F)CCN(C)C4)n[nH]c2cc1=O` [Compound 191, 3-(6-fluoro-2-methyl-1,2,3,4-tetrahydroisoquinolin-7-yl)-5-(2-fluoro-6-methoxyphenyl)-1H-pyrazolo[4,3-c]pyridazin-6(5H)-one], the concentration for half-maximal inhibition (IC50) was 50 to 500 nM. For `Cc1cccc(F)c1-n1nc2c(-c3ccc4c(c3)CCN(C3CN(C)C3)C4)n[nH]c2cc1=O` [Compound 194, 5-(2-fluoro-6-methylphenyl)-3-(2-(1-methylazetidin-3-yl)-1,2,3,4-tetrahydroisoquinolin-6-yl)-1H-pyrazolo[4,3-c]pyridazin-6(5H)-one] the value was at most 50 nM; for `Cc1cccc(F)c1-n1nc2c(-c3ccc4c(c3)CCN(C3CCOCC3)C4)n[nH]c2cc1=O` [Compound 195, 5-(2-fluoro-6-methylphenyl)-3-(2-(tetrahydro-2H-pyran-4-yl)-1,2,3,4-tetrahydroisoquinolin-6-yl)-1H-pyrazolo[4,3-c]pyridazin-6(5H)-one], 50 to 500 nM.
